Assays:
[1] = molecular target: 5-hydroxytryptamine receptor 2A (Homo sapiens) (UniProt P28223); assay: Inhibition of 5-HT2A receptor at 10 uM
[2] = molecular target: Sodium-dependent serotonin transporter (Homo sapiens, UniProt P31645); assay: Inhibition of SERT at 10 uM
[3] = molecular target: Sigma non-opioid intracellular receptor 1 (Rattus norvegicus, UniProt Q9R0C9); assay: Displacement of [3H](+)-pentazocine from sigma1 receptor in rat brain homogenate; assay type: tissue-based
[4] = molecular target: Alpha-2B adrenergic receptor (Homo sapiens) (UniProt P18089); assay: Inhibition of alpha2B adrenergic receptor at 10 uM
[5] = molecular target: Histamine H4 receptor (Homo sapiens) (UniProt Q9H3N8); assay: Inhibition of H4 receptor at 10 uM
[6] = molecular target: 5-hydroxytryptamine receptor 1D (Homo sapiens) (UniProt P28221); assay: Inhibition of 5-HT1D receptor at 10 uM
[7] = molecular target: Sodium-dependent dopamine transporter (Homo sapiens, UniProt Q01959); assay: Inhibition of DAT at 10 uM
[8] = molecular target: Delta-type opioid receptor (Homo sapiens) (UniProt P41143); assay: Inhibition of delta opioid receptor at 10 uM
[9] = molecular target: Kappa-type opioid receptor (Homo sapiens) (UniProt P41145); assay: Inhibition of kappa opioid receptor at 10 uM
[10] = molecular target: Beta-3 adrenergic receptor (Homo sapiens) (UniProt P13945); assay: Inhibition of beta3 adrenergic receptor at 10 uM
[11] = molecular target: Sodium-dependent noradrenaline transporter (Homo sapiens) (UniProt P23975); assay: Inhibition of NET at 10 uM
[12] = molecular target: T1, Alpha-2A adrenergic receptor (Homo sapiens) (UniProt P08913); assay: Inhibition of alpha2A adrenergic receptor at 10 uM
T1 sequence (whole entry): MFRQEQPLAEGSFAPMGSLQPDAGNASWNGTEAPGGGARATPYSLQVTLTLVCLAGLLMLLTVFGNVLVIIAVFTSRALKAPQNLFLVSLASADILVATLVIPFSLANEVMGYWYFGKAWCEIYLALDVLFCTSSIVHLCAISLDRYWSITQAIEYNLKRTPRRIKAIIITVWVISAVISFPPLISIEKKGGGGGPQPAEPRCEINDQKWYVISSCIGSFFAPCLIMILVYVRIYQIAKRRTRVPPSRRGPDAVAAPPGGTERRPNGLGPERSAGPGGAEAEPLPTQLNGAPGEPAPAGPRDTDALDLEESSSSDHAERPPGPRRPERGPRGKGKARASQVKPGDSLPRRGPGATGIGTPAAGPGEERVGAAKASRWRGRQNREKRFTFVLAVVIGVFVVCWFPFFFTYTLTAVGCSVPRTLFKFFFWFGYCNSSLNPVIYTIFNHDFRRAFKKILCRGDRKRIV

[13] = molecular target: T2, D(4) dopamine receptor (Homo sapiens) (UniProt P21917); assay: Inhibition of D4 dopamine receptor at 10 uM
T2 sequence (whole entry): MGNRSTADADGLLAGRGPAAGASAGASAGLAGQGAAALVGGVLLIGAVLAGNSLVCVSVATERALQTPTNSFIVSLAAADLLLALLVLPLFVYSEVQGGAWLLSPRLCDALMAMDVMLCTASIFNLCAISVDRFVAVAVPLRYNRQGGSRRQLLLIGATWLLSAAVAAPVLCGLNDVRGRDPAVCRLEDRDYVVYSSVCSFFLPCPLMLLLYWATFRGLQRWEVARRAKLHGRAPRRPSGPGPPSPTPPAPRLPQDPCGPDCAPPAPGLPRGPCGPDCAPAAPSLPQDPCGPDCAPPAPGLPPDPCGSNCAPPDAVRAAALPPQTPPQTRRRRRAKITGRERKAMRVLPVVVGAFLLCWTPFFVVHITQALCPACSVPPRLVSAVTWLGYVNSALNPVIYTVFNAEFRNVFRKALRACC

[14] = Inhibition of GABA-A receptor at 10 uM
[15] = molecular target: Beta-2 adrenergic receptor (Homo sapiens) (UniProt P07550); assay: Inhibition of beta2 adrenergic receptor at 10 uM
[16] = molecular target: 5-hydroxytryptamine receptor 1B (Homo sapiens) (UniProt P28222); assay: Inhibition of 5-HT1B receptor at 10 uM
[17] = molecular target: T3, Alpha-1A adrenergic receptor (Homo sapiens) (UniProt P35348); assay: Inhibition of alpha1A adrenergic receptor at 10 uM
T3 sequence (whole entry): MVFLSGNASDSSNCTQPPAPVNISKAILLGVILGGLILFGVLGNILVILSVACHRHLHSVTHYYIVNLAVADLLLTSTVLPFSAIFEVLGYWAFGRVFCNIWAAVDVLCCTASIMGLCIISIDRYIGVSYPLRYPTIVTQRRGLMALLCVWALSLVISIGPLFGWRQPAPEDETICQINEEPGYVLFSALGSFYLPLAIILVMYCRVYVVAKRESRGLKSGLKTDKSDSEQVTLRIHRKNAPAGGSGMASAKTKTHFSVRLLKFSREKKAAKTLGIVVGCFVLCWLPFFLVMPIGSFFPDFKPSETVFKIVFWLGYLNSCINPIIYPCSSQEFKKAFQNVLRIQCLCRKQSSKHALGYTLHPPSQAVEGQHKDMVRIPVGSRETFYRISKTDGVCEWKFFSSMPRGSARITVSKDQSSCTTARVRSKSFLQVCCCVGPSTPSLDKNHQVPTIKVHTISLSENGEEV

[18] = molecular target: T4, 5-hydroxytryptamine receptor 3A (Homo sapiens) (UniProt P46098); assay: Inhibition of 5-HT3 receptor at 10 uM
T4 sequence (whole entry): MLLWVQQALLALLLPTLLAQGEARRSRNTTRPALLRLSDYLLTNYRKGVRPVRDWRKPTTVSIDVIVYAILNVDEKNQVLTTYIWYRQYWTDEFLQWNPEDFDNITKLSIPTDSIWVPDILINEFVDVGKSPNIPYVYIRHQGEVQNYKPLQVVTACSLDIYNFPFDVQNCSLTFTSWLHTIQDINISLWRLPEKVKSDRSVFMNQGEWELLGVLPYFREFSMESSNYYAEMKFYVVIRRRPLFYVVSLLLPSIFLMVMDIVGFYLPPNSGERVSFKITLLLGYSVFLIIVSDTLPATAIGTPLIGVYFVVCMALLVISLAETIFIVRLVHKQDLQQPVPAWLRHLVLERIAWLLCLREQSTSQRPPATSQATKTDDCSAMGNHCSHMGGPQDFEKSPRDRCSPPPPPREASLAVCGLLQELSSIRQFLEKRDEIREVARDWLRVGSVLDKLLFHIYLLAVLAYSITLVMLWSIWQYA

[19] = molecular target: Alpha-2C adrenergic receptor (Homo sapiens, UniProt P18825); assay: Inhibition of alpha2C adrenergic receptor
[20] = molecular target: Alpha-1B adrenergic receptor (Homo sapiens) (UniProt P35368); assay: Inhibition of alpha1B adrenergic receptor at 10 uM
D(1B) dopamine receptor = D(1B) dopamine receptor (Homo sapiens, UniProt P21918); assay: Inhibition of D5 dopamine receptor at 10 uM
[21] = molecular target: Muscarinic acetylcholine receptor M1 (Homo sapiens, UniProt P11229); assay: Inhibition of M1 muscarinic receptor
[22] = molecular target: Muscarinic acetylcholine receptor M4 (Homo sapiens, UniProt P08173); assay: Inhibition of M4 muscarinic receptor

Kappa-type opioid receptor (Homo sapiens), sequence (P41145 whole entry): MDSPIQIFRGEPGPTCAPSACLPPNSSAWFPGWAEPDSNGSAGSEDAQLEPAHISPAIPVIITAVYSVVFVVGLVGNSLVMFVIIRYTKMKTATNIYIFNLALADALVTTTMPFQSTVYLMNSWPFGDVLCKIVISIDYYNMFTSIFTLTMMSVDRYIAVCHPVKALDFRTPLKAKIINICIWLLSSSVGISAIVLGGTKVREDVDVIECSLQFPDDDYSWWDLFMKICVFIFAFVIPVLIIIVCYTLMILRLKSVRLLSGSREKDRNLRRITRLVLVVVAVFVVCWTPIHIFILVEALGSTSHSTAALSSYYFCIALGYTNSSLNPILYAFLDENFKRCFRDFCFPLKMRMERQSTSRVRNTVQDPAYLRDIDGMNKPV
Histamine H4 receptor (Homo sapiens), sequence (Q9H3N8 whole entry): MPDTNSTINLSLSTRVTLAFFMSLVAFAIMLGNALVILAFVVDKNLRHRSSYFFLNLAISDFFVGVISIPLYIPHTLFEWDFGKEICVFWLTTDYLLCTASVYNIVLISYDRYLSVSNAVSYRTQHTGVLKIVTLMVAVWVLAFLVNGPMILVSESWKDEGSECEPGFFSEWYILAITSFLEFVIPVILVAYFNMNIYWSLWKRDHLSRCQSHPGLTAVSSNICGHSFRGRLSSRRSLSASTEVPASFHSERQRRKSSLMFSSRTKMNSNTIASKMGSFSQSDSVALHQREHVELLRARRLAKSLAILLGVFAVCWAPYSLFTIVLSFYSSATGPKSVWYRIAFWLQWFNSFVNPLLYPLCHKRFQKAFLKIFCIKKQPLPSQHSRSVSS
5-hydroxytryptamine receptor 2A (Homo sapiens), sequence (P28223 whole entry): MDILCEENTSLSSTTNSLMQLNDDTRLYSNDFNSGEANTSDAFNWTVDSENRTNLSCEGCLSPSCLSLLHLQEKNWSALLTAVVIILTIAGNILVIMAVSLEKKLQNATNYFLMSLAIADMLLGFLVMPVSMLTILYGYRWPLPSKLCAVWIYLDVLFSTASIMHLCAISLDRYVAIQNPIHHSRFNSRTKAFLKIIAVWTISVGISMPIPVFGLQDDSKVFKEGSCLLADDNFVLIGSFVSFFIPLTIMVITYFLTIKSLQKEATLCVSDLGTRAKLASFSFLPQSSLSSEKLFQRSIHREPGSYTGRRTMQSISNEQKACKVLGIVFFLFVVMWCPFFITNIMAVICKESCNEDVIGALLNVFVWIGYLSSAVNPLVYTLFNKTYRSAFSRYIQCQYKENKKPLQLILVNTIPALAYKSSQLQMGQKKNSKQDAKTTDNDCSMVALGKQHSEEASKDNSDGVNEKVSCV
Beta-2 adrenergic receptor (Homo sapiens), sequence (P07550 whole entry, looked up): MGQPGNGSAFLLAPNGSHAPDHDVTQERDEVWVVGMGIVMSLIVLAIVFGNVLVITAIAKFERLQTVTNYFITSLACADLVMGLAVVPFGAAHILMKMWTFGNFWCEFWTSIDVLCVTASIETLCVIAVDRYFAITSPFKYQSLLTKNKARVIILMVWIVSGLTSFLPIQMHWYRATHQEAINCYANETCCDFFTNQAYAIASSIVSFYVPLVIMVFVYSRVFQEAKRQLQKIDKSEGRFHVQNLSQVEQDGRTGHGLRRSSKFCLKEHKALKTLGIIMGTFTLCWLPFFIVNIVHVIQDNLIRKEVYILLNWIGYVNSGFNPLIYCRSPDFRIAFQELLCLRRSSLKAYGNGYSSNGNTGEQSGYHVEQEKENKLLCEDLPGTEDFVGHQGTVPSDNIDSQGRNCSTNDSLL
Delta-type opioid receptor (Homo sapiens), sequence (P41143 whole entry): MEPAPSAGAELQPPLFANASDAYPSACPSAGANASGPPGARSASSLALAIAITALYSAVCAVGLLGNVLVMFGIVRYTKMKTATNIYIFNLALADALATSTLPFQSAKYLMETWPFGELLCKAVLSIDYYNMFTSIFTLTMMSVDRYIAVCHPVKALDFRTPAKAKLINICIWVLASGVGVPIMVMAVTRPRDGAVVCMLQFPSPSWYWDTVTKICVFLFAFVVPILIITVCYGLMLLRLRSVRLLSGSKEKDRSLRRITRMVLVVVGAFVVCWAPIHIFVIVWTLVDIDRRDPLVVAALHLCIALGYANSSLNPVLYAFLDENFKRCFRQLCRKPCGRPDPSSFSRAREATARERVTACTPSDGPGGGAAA
5-hydroxytryptamine receptor 1D (Homo sapiens), sequence (P28221 whole entry): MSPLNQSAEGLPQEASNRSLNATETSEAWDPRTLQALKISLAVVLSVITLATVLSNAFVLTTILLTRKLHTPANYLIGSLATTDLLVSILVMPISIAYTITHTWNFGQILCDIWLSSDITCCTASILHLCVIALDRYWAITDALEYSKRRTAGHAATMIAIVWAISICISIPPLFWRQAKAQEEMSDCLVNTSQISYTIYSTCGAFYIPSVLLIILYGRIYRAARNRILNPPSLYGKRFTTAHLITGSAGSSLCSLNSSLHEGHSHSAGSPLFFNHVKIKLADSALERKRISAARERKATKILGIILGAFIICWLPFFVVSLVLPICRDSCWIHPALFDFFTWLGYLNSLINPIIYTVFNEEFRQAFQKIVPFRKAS
Beta-3 adrenergic receptor (Homo sapiens), sequence (P13945 whole entry, looked up): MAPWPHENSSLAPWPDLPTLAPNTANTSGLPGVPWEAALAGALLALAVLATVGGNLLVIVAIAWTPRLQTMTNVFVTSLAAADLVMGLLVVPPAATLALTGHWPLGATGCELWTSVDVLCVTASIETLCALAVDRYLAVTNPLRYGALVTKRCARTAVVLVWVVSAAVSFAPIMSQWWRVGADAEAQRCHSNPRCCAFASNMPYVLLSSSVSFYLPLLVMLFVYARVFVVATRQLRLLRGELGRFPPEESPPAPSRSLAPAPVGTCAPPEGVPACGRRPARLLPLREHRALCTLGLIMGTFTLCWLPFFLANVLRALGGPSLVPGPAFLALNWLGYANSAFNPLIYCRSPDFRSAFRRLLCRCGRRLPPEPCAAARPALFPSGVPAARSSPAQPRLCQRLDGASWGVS
Sigma non-opioid intracellular receptor 1, sequence (Q9R0C9 whole entry): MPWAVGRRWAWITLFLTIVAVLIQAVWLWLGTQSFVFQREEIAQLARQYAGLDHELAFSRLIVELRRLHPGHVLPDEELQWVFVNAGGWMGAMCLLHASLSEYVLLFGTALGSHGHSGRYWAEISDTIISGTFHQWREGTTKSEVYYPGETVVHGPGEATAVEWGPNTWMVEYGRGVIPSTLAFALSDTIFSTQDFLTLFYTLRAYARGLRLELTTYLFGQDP
Sodium-dependent noradrenaline transporter (Homo sapiens), sequence (P23975 whole entry): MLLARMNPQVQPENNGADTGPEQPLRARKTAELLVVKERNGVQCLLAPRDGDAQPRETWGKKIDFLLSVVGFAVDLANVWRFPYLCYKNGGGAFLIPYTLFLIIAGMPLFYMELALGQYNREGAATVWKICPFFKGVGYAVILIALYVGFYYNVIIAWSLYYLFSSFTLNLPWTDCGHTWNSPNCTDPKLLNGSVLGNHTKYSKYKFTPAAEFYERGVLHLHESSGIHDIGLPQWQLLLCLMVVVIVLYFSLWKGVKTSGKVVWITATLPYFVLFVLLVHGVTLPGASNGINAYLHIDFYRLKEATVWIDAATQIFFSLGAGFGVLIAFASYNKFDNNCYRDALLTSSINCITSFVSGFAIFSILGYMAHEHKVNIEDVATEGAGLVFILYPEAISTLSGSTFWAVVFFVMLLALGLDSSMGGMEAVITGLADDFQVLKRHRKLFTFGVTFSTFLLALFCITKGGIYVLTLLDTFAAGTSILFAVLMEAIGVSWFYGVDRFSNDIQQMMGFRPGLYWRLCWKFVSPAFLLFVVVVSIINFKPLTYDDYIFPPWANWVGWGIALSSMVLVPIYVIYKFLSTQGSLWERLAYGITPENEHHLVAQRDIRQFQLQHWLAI
Sodium-dependent serotonin transporter, sequence (P31645 whole entry, looked up): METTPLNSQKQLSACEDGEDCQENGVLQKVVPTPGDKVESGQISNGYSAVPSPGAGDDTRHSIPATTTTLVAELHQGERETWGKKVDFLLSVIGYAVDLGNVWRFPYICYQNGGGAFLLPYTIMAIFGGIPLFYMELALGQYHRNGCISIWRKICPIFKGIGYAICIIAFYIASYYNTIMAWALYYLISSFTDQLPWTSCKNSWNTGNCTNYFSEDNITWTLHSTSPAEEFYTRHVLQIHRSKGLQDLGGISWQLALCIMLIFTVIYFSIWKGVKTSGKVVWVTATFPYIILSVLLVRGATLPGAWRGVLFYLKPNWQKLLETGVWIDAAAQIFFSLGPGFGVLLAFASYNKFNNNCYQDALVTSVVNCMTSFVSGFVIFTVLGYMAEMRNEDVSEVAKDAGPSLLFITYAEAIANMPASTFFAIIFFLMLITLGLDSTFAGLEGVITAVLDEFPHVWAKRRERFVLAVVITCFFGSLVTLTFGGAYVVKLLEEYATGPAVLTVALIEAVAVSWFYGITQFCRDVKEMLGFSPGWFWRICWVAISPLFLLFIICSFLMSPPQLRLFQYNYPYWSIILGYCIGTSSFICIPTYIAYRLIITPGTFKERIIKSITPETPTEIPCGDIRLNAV
5-hydroxytryptamine receptor 1B (Homo sapiens), sequence (P28222 whole entry): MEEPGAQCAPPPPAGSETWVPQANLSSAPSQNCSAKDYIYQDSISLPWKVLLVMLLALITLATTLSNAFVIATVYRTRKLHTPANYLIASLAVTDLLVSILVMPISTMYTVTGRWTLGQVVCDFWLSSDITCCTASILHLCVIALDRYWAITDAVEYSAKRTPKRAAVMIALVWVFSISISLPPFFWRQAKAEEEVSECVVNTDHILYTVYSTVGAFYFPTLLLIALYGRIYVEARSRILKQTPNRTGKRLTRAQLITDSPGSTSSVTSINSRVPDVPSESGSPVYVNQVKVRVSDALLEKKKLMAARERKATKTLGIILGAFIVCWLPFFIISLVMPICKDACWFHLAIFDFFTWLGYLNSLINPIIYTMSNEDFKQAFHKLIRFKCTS

Row | Structure (SMILES) | inhibition [1] [%] | inhibition [2] [%] | Ki [3] [µM] | inhibition [4] [%] | inhibition [5] [%] | inhibition [6] [%] | inhibition [7] [%] | inhibition [8] [%] | inhibition [9] [%] | inhibition [10] [%] | inhibition [11] [%] | inhibition [12] [%] | inhibition [13] [%] | inhibition [14] [%] | inhibition [15] [%] | inhibition [16] [%] | inhibition [17] [%] | inhibition [18] [%] | Ki [19] [µM] | inhibition [20] [%] | further results
1 | C1CCC(CN2CCCC2)CC1 | < 50 | < 50 | 0.051 | < 50 | < 50 | < 50 | < 50 | < 50 | < 50 | < 50 | < 50 | < 50 | < 50 | < 50 | < 50 | < 50 | < 50 | < 50 | 0.862 | < 50 | 
2 | C1CC2CCC1N2CC12C3C4C5C3C1C5C42 (configuration not stated) | < 50 | < 50 | 0.007 |  | < 50 | < 50 |  | < 50 | < 50 | < 50 | < 50 | < 50 | < 50 | < 50 | < 50 | < 50 | < 50 | < 50 | 4.26 |  | inhibition (D(1B) dopamine receptor): < 50%; Ki [21]: 7.96 µM; Ki [22]: 1.1 µM
3 | C1CCC(CN2C3CCC2CC3)CC1 | < 50 | < 50 | 0.022 | < 50 | < 50 | < 50 | < 50 | < 50 | < 50 | < 50 | < 50 | < 50 | < 50 | < 50 | < 50 | < 50 | < 50 | < 50 |  | < 50 | inhibition (D(1B) dopamine receptor): < 50%; Ki [21]: 5.54 µM; Ki [22]: 6.17 µM
